The results in this text go back to US9580426B2, “Compounds that expand hematopoietic stem cells” (Novartis AG, priority 2008, dated 2017).

SMILES strings stand for the structures.

The assay concerns Primary adult CD34+ human hematopoietic stem cells (HSCs). Nature of the assay: % CD34+ assay: HSC expansion screen, dose response. Format: cell-based. As to conditions: Homo sapiens, Hematopoietic stem cell; dose response 1 nM to 10 μM; total number and/or percent of CD34+ cells. How it is done:
Primary adult CD34^+ human hematopoietic stem cells (HSCs) are cultured and screened to identify compounds of the invention that facilitate HSC expansion. The cells are analyzed for the presence of the desired phenotype (CD34 expression). Compounds of the invention promote HSC expansion in a dose dependent manner.
Culture Medium: StemSpan SFEM medium is serum-free medium (StemCell Technologies, Vancouver, BC) supplemented with the following human recombinant cytokines: thrombopoietin, interleukin-6, Flt-3 ligand, and stem cell factor (all from R&D Systems, Minneapolis, Minn.), each at a final concentration of 50 ng/mL, with vehicle (DMSO) or a compound of the invention.
Human Cell Culture: Fresh human leukophoresed G-CSF mobilized peripheral blood from normal donors, CD34^+ cells from adult bone marrow and cryopreserved human cord blood CD34^+ cells are purchased from AllCells (Berkeley, Calif.). Human CD34^+ cells are enriched from leukophoresed G-CSF mobilized peripheral blood using magnetic cell sorting (MACS, Direct CD34 Progenitor Cell Isolation Kit, Miltenyi Biotec, Bergisch Gladbach, Germany) and cryopreserved. CD34^+ cell purity, checked by flow Cytometry, is higher than 90%. After thawing, the cell viability tested by trypan blue exclusion is higher than 70%. The thawed cells are centrifuged and resuspended with StemSpan medium before being aliquoted for immediate culture. Cells are plated at 10^4 cells/mL in a 384 well plate (Greiner Bio-One, Monroe, N.C.) with 50 μL of medium per well for 7 days. Every 7 days the cells are transferred to larger well plates and fresh medium is added to keep the cell density between 10^4 and 5×10^5 cells/mL. Cells were cultured at 37° C. in 5% CO2. For transplantation, cells were cultured in 75 cm^2 flasks before the cells were transplanted into mice. At a concentration of 1 micromolar, 4-(2-(2-(benzo[b]thiophen-3-yl)-9-isopropyl-9H-purin-6-ylamino)ethyl)phenol (compound 1, table 1; example 1), 4-(2-(2-(benzo[b]thiophen-3-yl)-9-sec-butyl-9H-purin-6-ylamino)ethyl)phenol (compound 2, table 1), and N-(2-(1H-indol-3-yl)ethyl)-2-(benzo[b]thiophen-3-yl)-9-isopropyl-9H-purin-6-amine (compound 9, table 1) each gives rise to a greater than 10-fold increase in the number of CD34^+ CD45RA^− cells derived from 1000 mPB CD34^+ HSCs after 21 days compared to vehicle. Compounds of the invention were assayed in a dose response format (1 nM to 10 μM) to determine the effective concentration that produced the desired effect in 50% of the cells (EC50).
`Fc1cncc(-c2nc(NCCc3c[nH]c4ccccc34)c3ncn(C4COC4)c3n2)c1` [Example 186] displayed an EC50 of 7 nM. This counts as single-digit nanomolar.

Compound `CC[C@@H](C)n1cnc2c(NCCc3c[nH]c4ccccc34)nc(-c3cncc(F)c3)nc21` [Example 132R] yielded an EC50 of 1 nM.

Regarding `CC(C)n1cnc2c(NCCc3ccc(O)cc3)nc(-c3cnccc3Cl)nc21` [Example 48], the EC50 stood at 510 nM.

Consider `CC(C)n1cnc2c(NCCc3ccc(O)cc3)nc(-c3cncc(F)c3)nc21` [Example 50], for which the EC50 came to 34 nM. This EC50 is about 15-fold lower than that of the compound before.

`C[C@H](CO)n1cnc2c(NCCc3c[nH]c4ccccc34)nc(-c3cncc(F)c3)nc21` [Example 157R, (R)-2-(6-(2-(1H-indol-3-yl)ethylamino)-2-(5-fluoropyridin-3-yl)-9H-purin-9-yl)propan-1-ol]: the EC50 was 8 nM. This EC50 is about 4.2-fold lower than that of the compound before.

Consider `CC(C)n1cnc2c(NCCc3ccc(O)cc3)nc(-n3cnc4cccnc43)nc21` [Example 159], for which the EC50 is 590 nM.

In turn, `CC(C)n1cnc2c(NCCN3CCNC3=O)nc(-c3csc4ccccc34)nc21` [Example 81] returned an EC50 of 2700 nM.

Regarding `CC(C)n1cnc2c(NCCc3ccc(O)cc3)nc(-c3cncs3)nc21` [Example 120], the EC50 amounted to 1400 nM. This EC50 lies about 1.9-fold lower than the previous one.

Compound `CC(C)n1cnc2c(NCCc3ccc(O)cc3)nc(-c3cccnc3)nc21` [Example 15] came in with an EC50 of 190 nM.

Compound `Cc1cc(CCNc2nc(-c3cccnc3)nc3c2ncn3C(C)C)ccc1O` [Example 150] yielded a concentration giving a half-maximal response (EC50) of 57 nM.

In the case of `CC(C)n1cnc2c(NCCc3ccc(O)cc3)nc(-c3ccccn3)nc21` [Example 44], a half-maximal effect (EC50) was put at 1700 nM.

In turn, `Cc1ccncc1-c1nc(NCCc2ccc(O)cc2)c2ncn(C(C)C)c2n1` [Example 35] registered an EC50 of 340 nM.

In turn, `CC(C)n1ccc2c(NCCc3ccc(O)cc3)nc(-c3csc4ccccc34)nc21` [Example 198] displayed an EC50 of 1100 nM.

Turning to `Cc1[nH]c2ccccc2c1CCNc1nc(-c2cncc(F)c2)nc2c1ncn2C(C)C` [Example 190], the EC50 came out at 5 nM. Compared with the last compound, the EC50 is about 220-fold lower.

`CC(C)n1cnc2c(NCCc3ccc(O)cc3)nc(-c3ccncc3)nc21` [Example 31] yielded an EC50 of 660 nM.

The compound `CC(C)n1cnc2c(NCCc3ccc(O)cc3)nc(-c3cncnc3)nc21` [Example 14] registered an EC50 of 170 nM. This EC50 lies about 3.9-fold lower than the previous one.

Regarding `CCC(C)n1cnc2c(NCCc3ccc(O)c(C)c3)nc(-c3cncc(C#N)c3)nc21` (stereo not drawn) [Example 124], the EC50 was determined as 3 nM.

For `Cc1cccc2[nH]cc(CCNc3nc(-c4cncc(F)c4)nc4c3ncn4C(C)C)c12` [Example 197], it took 11 nM to reach a half-maximal effect (EC50).

Turning to `Cc1cscc1-c1nc(NCCc2ccc(O)cc2)c2ncn(C(C)C)c2n1` [Example 58], the EC50 stood at 240 nM.

Consider `Oc1ccc(CCNc2nc(-c3cccnc3)nc3c2ncn3[C@H]2CCOC2)cc1` [Example 93S], for which the midpoint of the response, the EC50, lay at 1100 nM. Compared with the last compound, the EC50 is about 4.6-fold higher.

`CC(C)n1ccc2c(NCCc3ccc(O)cc3)nc(-c3cncc(F)c3)nc21` [Example 141, 4-(2-(2-(5-Fluoropyridin-3-yl)-7-isopropyl-7H-pyrrolo[2,3-d]pyrimidin-4-ylamino)ethyl)phenol] registered an EC50 of 160 nM.

`CCOC(=O)c1cncc(-c2nc(NCCc3ccc(O)cc3)c3ncn(C(C)C)c3n2)c1` [Example 32] yielded an EC50 of 5600 nM.

The compound `Oc1ccc(CCNc2nc(-c3csc4ccccc34)nc3c2ncn3C2COC2)cc1` [Example 151] yielded an EC50 of 170 nM.

Consider `CCC(C)n1cnc2c(NCCc3c[nH]c4ccccc34)nc(-c3cncc(F)c3)nc21` (stereo not drawn) [Example 132], for which the EC50 was determined as 3 nM.

Consider `Cc1n[nH]c(SCCNc2nc(-c3cccnc3)nc3c2ncn3C(C)C)n1` [Example 76], for which the response was half-maximal at 6000 nM (EC50).

Compound `CC(C)n1cnc2c(NCCc3ccc(O)cc3)nc(-c3cnccn3)nc21` [Example 43] came in with an EC50 of 2400 nM.

`CC(C)n1ncc2c(NCCc3ccc(O)cc3)nc(-c3csc4ccccc34)nc21` [Example 135] displayed an EC50 of 380 nM.

The compound `CC(C)n1cnc2c(NCCc3ccc(O)cc3F)nc(-c3cccnc3)nc21` [Example 147] showed an EC50 of 92 nM. Compared with the last compound, the EC50 is about 4.1-fold lower.

With `CC(C)n1cnc2c(NCCc3ccc(O)cc3)nc(-c3cccnc3C#N)nc21` [Example 143], it took 4300 nM to reach a half-maximal effect (EC50).

With `CCC(C)n1cnc2c(NCCc3c[nH]c4ccccc34)nc(-c3cncc(C)c3)nc21` (stereo not drawn) [Example 131], the midpoint of the response, the EC50, lay at 4 nM.

`CC(C)n1cnc2c(NCCc3ccc(O)nc3)nc(-c3cncc(F)c3)nc21` [Example 174]: the EC50 stood at 2200 nM. Against the preceding compound, the EC50 is about 550-fold higher.

With `Oc1ccc(CCNc2nc(-c3cccnc3)nc3c2ncn3[C@@H]2CCOC2)cc1` [Example 93R], the EC50 amounted to 520 nM.

In the case of `CC[C@@H](C)n1cnc2c(NCCc3c[nH]c4ccccc34)nc(-c3cncc(C)c3)nc21` [Example 131R], a half-maximal response (EC50) required 3 nM.

Turning to `Cc1cncc(-c2nc(NCCc3c[nH]c4ccccc34)c3ncn(C(C)C)c3n2)c1` [Example 183], a half-maximal effect (EC50) was put at 10 nM.

`Cc1n[nH]c(C)c1CCCNc1nc(-c2csc3ccccc23)nc2c1ncn2C(C)C` [Example 88] yielded an EC50 of 2600 nM.

Take `Cc1cncc(-c2nc(NCCc3ccc(O)cc3)c3ncn(C(C)C)c3n2)c1` [Example 45]: the EC50 is 63 nM.

The compound `CC(C)n1cnc2c(NCCc3cccnc3)nc(-c3cncc(F)c3)nc21` [Example 166] displayed an EC50 of 7500 nM.

`CC(C)n1cnc2c(NCCNC(N)=O)nc(-c3csc4ccccc34)nc21` [Example 89] registered an EC50 of 1400 nM.

`CCC(C)n1cnc2c(NCCc3c[nH]c4ccccc34)nc(-c3cncc(C#N)c3)nc21` (stereo not drawn) [Example 130] displayed an EC50 of 1 nM.

Regarding `CC(C)n1cnc2c(NCc3ccc4[nH]c(=O)[nH]c4c3)nc(-c3csc4ccccc34)nc21` [Example 90], a half-maximal response (EC50) required 3300 nM. Compared with the last compound, the EC50 is about 3300-fold higher.

Compound `Cc1cc(CCNc2nc(-c3cccnc3)nc3c2ncn3C(C)C)n[nH]1` [Example 126] showed an EC50 of 5000 nM.

For `CC(C)n1cnc2c(NCCc3c[nH]c4cc(F)ccc34)nc(-c3cncc(F)c3)nc21` [Example 188], the EC50 came to 5 nM.

The compound `CC(C)n1cnc2c(NCCN3CCNC3=O)nc(-c3cccnc3)nc21` [Example 70] returned an EC50 of 2700 nM.

Compound `CC(C)n1cnc2c(NCC(O)c3ccc(O)cc3)nc(-c3cncc(F)c3)nc21` (stereo not drawn) [Example 167] had an EC50 of 290 nM.

`CC(C)n1cnc2c(NCCc3ccc(O)cc3)nc(-c3ccc(F)nc3)nc21` [Example 34] yielded an EC50 of 160 nM.

Regarding `CC(C)n1cnc2c(NCCc3ccc(O)cc3)nc(-c3ccoc3)nc21` [Example 18], the EC50 amounted to 3900 nM.

Compound `CC(Cc1ccc(O)cc1)Nc1nc(-c2cccnc2)nc2c1ncn2C(C)C` (stereo not drawn) [Example 95] registered an EC50 of 2300 nM.

`COc1ccc2c(CCNc3nc(-c4cccnc4)nc4c3ncn4C(C)C)c[nH]c2c1` [Example 61] returned an EC50 of 130 nM.

In the case of `CC(C)n1cnc2c(NCCc3c[nH]c4ccc(F)cc34)nc(-c3cccnc3)nc21` [Example 149], the EC50 turned out to be 520 nM.

As for `COc1ccc2c(CCNc3nc(-c4cncc(F)c4)nc4c3ncn4C(C)C)c[nH]c2c1` [Example 169], a half-maximal effect (EC50) was put at 44 nM.

`COc1cncc(-c2nc(NCCc3ccc(O)cc3)c3ncn(C(C)C)c3n2)c1` [Example 33] gave an EC50 of 270 nM.

Regarding `CC(C)n1cnc2c(NCCc3c[nH]c4c(F)cccc34)nc(-c3cncc(F)c3)nc21` [Example 196], a half-maximal response (EC50) required 2 nM.

As to `CC(CO)n1cnc2c(NCCc3c[nH]c4ccccc34)nc(-c3cncc(F)c3)nc21` (stereo not drawn) [Example 157, 2-(6-(2-(1H-indol-3-yl)ethylamino)-2-(5-fluoropyridin-3-yl)-9H-purin-9-yl)propan-1-ol], the EC50 worked out at 5 nM.

Consider `CC(C)n1cnc2c(NCCc3ccc(OS(N)(=O)=O)cc3)nc(-c3cccnc3)nc21` [Example 114], for which the EC50 was found to be 1100 nM.

For `CC(C)n1cnc2c(NCCc3ccc(O)cc3)nc(-c3cccn3C)nc21` [Example 119], the response was half-maximal at 1400 nM (EC50). This EC50 and that of the compound before are within 1.5-fold of each other.

The compound `Oc1ccc(CCNc2nc(-c3cccnc3)nc3c2ncn3C2COC2)cc1` [Example 94] came in with an EC50 of 970 nM.

`CC(C)n1cnc2c(NCCNc3ccccn3)nc(-c3csc4ccccc34)nc21` [Example 83] yielded an EC50 of 7100 nM.

Take `Cc1nccn1-c1nc(NCCc2ccc(O)cc2)c2ncn(C(C)C)c2n1` [Example 123, 4-(2-(9-Isopropyl-2-(2-methyl-1H-imidazol-1-yl)-9H-purin-6-ylamino)ethyl)phenol]: the EC50 turned out to be 66 nM.

The compound `CCC(C)n1cnc2c(NCCc3c[nH]c4ccccc34)nc(-n3ccnc3C)nc21` (stereo not drawn) [Example 178] came in with an EC50 of 3 nM. Compared with the last compound, the EC50 is about 22-fold lower.

`C=C(C)n1cnc2c(NCCc3c[nH]c4ccccc34)nc(-c3cncc(F)c3)nc21` [Example 173] showed an EC50 of 12 nM.
